Source: patent publication US7250442B2, “Dihydroindol-2-one derivatives as steroid hormone nuclear receptor modulators” (Eli Lilly and Company, priority 2003, dated 2007)

Target: T1, human MR (Homo sapiens, UniProt P08235)
T1 construct: The full length human MR gene is cloned from a human kidney or human brain cDNA library; made in house; host or cells: Sf9 insect cells (baculovirus, pAcHLT transfer vector)
T1 sequence (P08235 1-984): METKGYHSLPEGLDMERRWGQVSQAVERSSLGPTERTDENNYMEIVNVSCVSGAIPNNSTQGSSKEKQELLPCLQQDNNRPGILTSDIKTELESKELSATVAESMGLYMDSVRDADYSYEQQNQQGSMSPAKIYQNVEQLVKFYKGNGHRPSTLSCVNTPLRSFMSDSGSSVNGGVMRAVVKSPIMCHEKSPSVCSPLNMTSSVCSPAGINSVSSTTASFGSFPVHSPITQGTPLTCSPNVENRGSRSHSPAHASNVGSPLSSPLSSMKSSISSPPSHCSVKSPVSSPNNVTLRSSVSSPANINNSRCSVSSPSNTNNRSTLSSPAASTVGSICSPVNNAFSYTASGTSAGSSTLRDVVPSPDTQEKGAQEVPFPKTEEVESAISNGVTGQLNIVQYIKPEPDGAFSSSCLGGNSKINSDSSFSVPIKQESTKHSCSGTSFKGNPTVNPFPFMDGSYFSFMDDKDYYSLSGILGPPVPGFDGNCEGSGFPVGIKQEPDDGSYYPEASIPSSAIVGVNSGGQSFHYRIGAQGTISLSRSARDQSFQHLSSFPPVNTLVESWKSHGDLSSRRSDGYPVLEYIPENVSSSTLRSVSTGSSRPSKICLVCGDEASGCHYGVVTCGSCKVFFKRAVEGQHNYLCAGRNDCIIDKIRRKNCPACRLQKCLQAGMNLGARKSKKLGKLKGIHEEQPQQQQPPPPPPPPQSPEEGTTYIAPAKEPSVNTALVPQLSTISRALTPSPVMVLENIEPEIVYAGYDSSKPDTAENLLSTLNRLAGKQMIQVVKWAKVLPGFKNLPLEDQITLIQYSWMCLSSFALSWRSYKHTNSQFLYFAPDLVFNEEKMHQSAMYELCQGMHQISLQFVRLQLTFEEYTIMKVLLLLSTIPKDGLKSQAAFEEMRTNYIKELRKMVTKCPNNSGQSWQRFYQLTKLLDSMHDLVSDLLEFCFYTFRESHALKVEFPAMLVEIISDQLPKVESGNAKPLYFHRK
Test: Mineralocorticoid Receptor Binding Assay ([3H]-aldosterone displacement)
Settings: full length human MR expressed in Sf9 cells, 0.5 nM [3H]-aldosterone
Method: Mineralocorticoid Receptor Binding Assay:
The full length human MR gene is cloned from a human kidney or human brain cDNA library. Briefly, using synthetic oligonucleotide primers (Eli Lilly and Company, Indianapolis) directed to nucleotides 20-54 and 3700-3666 of the human MR, polymerase chain reaction (PCR) is performed under standard conditions using a human cDNA library. The PCR reaction is performed in a final volume of 50 μl containing about 1 μl of a 50× stock solution of polymerase; about 1 μl of a 50× stock solution of dNTP; about 5 μl of an appropriate PCR buffer; about 1 μl of each primer; about 5 μl of a H. kidney or H. brain cDNA library; and about 36 μl of water. The reaction is allowed to denature for about 30 seconds at 95 degrees Celsius, anneal for about 30 seconds at 55 degrees Celsius, and extend for about 5 minutes at 72 degrees Celsius, the sequence being repeated for a total of about 35 cycles. The desired PCR product (3.68 Kb) is confirmed by gel electrophoresis and subsequently cut from the gel and stored at about −20 degrees Celsius until extraction. To extract the cDNA product from the agarose gel, the QIAEX II Gel Extraction protocol (QIAGEN, Inc.) is employed according to the manufacturer's instructions. Following extraction, the MR cDNA is cloned into an appropriate cloning vector (Zero Blunt TOPO PCR Cloning Kit (Invitrogen, Inc.) and a pAcHLT-baculovirus transfer vector (B.D./Pharminogen), then expressed in SF9 insect cells, essentially according to manufacturer's instructions. Sf9 cells are grown at a scale where gram quantity cell pellets are obtained for subsequent use in the MR binding assay. Harvested cell pellets are lysed by repeated freeze-thaw cycles (about 4) in a suitable lysis buffer then centrifuged at about 1×10^3 G (with the supernatant being saved for future assays).
MR binding assays are performed in a final total volume of about 250 μl containing about 20-25 μg of protein and 0.5 nM of [^3H]-aldosterone plus varying concentrations of test compound or vehicle. The assay binding buffer consists of 30 mM sodium molybdate, 30 mM of TRIS-HCl, 5 mM sodium phosphate, 5 mM sodium pyrophosphate, and about 10% glycerol, pH=7.5.
Briefly, assays are prepared at RT in 96-well Falcon 3072 plates, each well containing 210 μl of binding buffer, 10 μl of [^3H]-aldosterone, 10 μl of test compound/vehicle, and 20 μl of the resuspended receptor protein extract. Incubations are carried out at 4 degrees Celsius with shaking for about 16 hours. 200 μl aliquots of each incubation are filtered onto Millipore HA 0.45 micron 96-well filter plates, pre-moistened with cold 30 mM TRIS-HCl. The filter plates are suctioned dry with vacuum and immediately washed 3× with cold 30 mM TRIS-HCl. The plates are then punched out and the amount of receptor-ligand complex is determined by liquid scintillation counting using 4 ml of Ready Protein Plus™ liquid scintillation cocktail.
IC50 values (defined as the concentration of test compound required to decrease [^3H]-aldosterone binding by 50%) are then determined. Ki values for each respective test compound can then be calculated by application of the Cheng-Prusoff equation as described in Cheng et al., Relationship Between The Inhibition Constant (Ki) and The Concentration of Inhibitor Which Causes 50% Inhibition (IC50) of an Enzymatic Reaction, Biochem. Pharmacol., 22: 3099-31088; (1973).

Ki, ≤ 500 nM:
COC(=O)c1ccc(CN2C(=O)C(c3cc(C)c(O)c(C)c3)(c3cc(C)c(O)c(C)c3)c3ccccc32)o1 [Example 108, 5-[3,3-Bis-(4-hydroxy-3,5-dimethyl-phenyl)-2-oxo-2,3-dihydro-indol-1-ylmethyl]-furan-2-carboxylic acid methyl ester]
CCc1cccc2c1N(Cc1ccccc1Cl)C(=O)C2(c1cc(C)c(O)c(C)c1)c1cc(C)c(O)c(C)c1 [Example 25, 1-(2-Chloro-benzyl)-7-ethyl-3,3-bis-(4-hydroxy-3,5-dimethyl-phenyl)-1,3-dihydro-indol-2-one]
COc1ccc(-c2nc(CN3C(=O)C(c4cc(C)c(O)c(C)c4)(c4cc(C)c(O)c(C)c4)c4ccccc43)cs2)cc1 [Example 94, 3,3-Bis-(4-hydroxy-3,5-dimethyl-phenyl)-1-[2-(4-methoxy-phenyl)-thiazol-4-ylmethyl]-1,3-dihydro-indol-2-one]
Cc1cc(C2(c3cc(C)c(O)c(C)c3)C(=O)N(Cc3ccc4ccccc4n3)c3ccccc32)cc(C)c1O [Example 97, 3,3-Bis-(4-hydroxy-3,5-dimethyl-phenyl)-1-quinolin-2-ylmethyl-1,3-dihydro-indol-2-one]
Cc1cc(C2(c3cc(C)c(O)c(C)c3)C(=O)N(Cc3ccccc3Cl)c3ccc(Br)cc32)cc(C)c1O [Example 19, 5-Bromo-1-(2-chloro-benzyl)-3,3-bis-(4-hydroxy-3,5-dimethyl-phenyl)-1,3-dihydro-indol-2-one]
COc1ccc(-c2nc(CN3C(=O)C(c4cc(C)c(O)c(C)c4)(c4cc(C)c(O)c(C)c4)c4cc(C)ccc43)cs2)cc1 [Example 95, 3,3-Bis-(4-hydroxy-3,5-dimethyl-phenyl)-1-[2-(4-methoxy-phenyl)-thiazol-4-ylmethyl]-5-methyl-1,3-dihydro-indol-2-one]
Cc1ccccc1CN1C(=O)C(c2cc(C)c(O)c(C)c2)(c2cc(C)c(O)c(C)c2)c2cc(Br)ccc21 [Example 20, 5-Bromo-3,3-bis-(4-hydroxy-3,5-dimethyl-phenyl)-1-(2-methyl-benzyl)-1,3-dihydro-indol-2-one]
COc1ccc(-c2noc(CN3C(=O)C(c4cc(C)c(O)c(C)c4)(c4cc(C)c(O)c(C)c4)c4ccccc43)n2)cc1 [Example 142, 3,3-Bis-(4-hydroxy-3,5-dimethyl-phenyl)-1-[3-(4-methoxy-phenyl)-[1,2,4]oxadiazol-5-ylmethyl]-1,3-dihydro-indol-2-one]
Cc1cc(C2(c3cc(C)c(O)c(C)c3)C(=O)N(Cc3ccc([N+](=O)[O-])o3)c3ccccc32)cc(C)c1O [Example 73, 3,3-Bis-(4-hydroxy-3,5-dimethyl-phenyl)-1-(5-nitro-furan-2-ylmethyl)-1,3-dihydro-indol-2-one]
Cc1cc(C2(c3cc(C)c(O)c(C)c3)C(=O)N(Cc3cccc(Br)c3)c3ccccc32)cc(C)c1O [Example 64, 1-(3-Bromo-benzyl)-3,3-bis-(4-hydroxy-3,5-dimethyl-phenyl)-1,3-dihydro-indol-2-one]
Cc1cc(C2(c3cc(C)c(O)c(C)c3)C(=O)N(Cc3ccccc3N)c3ccccc32)cc(C)c1O [Example 119, 1-(2-Amino-benzyl)-3,3-bis-(4-hydroxy-3,5-dimethyl-phenyl)-1,3-dihydro-indol-2-one]
COc1nccc(N2C(=O)C(c3cc(C)c(O)c(C)c3)(c3cc(C)c(O)c(C)c3)c3ccccc32)n1 [Example 143, 3,3-Bis-(4-hydroxy-3,5-dimethyl-phenyl)-1-(2-methoxy-pyrimidin-4-yl)-1,3-dihydro-indol-2-one]
Cc1cc(C2(c3cc(C)c(O)c(C)c3)C(=O)N(Cc3ccccc3Br)c3ccccc32)cc(C)c1O [Example 63, 1-(2-Bromo-benzyl)-3,3-bis-(4-hydroxy-3,5-dimethyl-phenyl)-1,3-dihydro-indol-2-one]
C=C(C)CN1C(=O)C(c2cc(C)c(O)c(C)c2)(c2cc(C)c(O)c(C)c2)c2ccccc21 [Example 106, 3,3-Bis-(4-hydroxy-3,5-dimethyl-phenyl)-1-(2-methyl-allyl)-1,3-dihydro-indol-2-one]
Cc1cc(C2(c3cc(C)c(O)c(C)c3)C(=O)N(Cc3cccc(F)c3F)c3ccccc32)cc(C)c1O [Example 66, 1-(2,3-Difluoro-benzyl)-3,3-bis-(4-hydroxy-3,5-dimethyl-phenyl)-1,3-dihydro-indol-2-one]
Cc1cc(C2(c3cc(C)c(O)c(C)c3)C(=O)N(Cc3ccccc3)c3ccc(Br)cc32)cc(C)c1O [Example 15, 1-Benzyl-5-bromo-3,3-bis-(4-hydroxy-3,5-dimethyl-phenyl)-1,3-dihydro-indol-2-one]
Cc1cc(C2(c3cc(C)c(O)c(C)c3)C(=O)N(c3ccncc3)c3ccccc32)cc(C)c1O [Example 136, 3,3-Bis-(4-hydroxy-3,5-dimethyl-phenyl)-1-pyridin-4-yl-1,3-dihydro-indol-2-one]
CCOCCN1C(=O)C(c2cc(C)c(O)c(C)c2)(c2cc(C)c(O)c(C)c2)c2ccccc21 [Example 80, 1-(2-Ethoxy-ethyl)-3,3-bis-(4-hydroxy-3,5-dimethyl-phenyl)-1,3-dihydro-indol-2-one]
Cc1ccc2c(c1)C(c1cc(C)c(O)c(C)c1)(c1cc(C)c(O)c(C)c1)C(=O)N2Cc1ccccc1Cl [Example 22, 1-(2-Chloro-benzyl)-3,3-bis-(4-hydroxy-3,5-dimethyl-phenyl)-5-methyl-1,3-dihydro-indol-2-one]
Cc1cc(C2(c3cc(C)c(O)c(C)c3)C(=O)N(Cc3c(F)cccc3F)c3ccccc32)cc(C)c1O [Example 115, 1-(2,6-Difluoro-benzyl)-3,3-bis-(4-hydroxy-3,5-dimethyl-phenyl)-1,3-dihydro-indol-2-one]
CCc1nc(CN2C(=O)C(c3cc(C)c(O)c(C)c3)(c3cc(C)c(O)c(C)c3)c3ccccc32)cs1 [Example 90, 1-(2-Ethyl-thiazol-4-ylmethyl)-3,3-bis-(4-hydroxy-3,5-dimethyl-phenyl)-1,3-dihydro-indol-2-one]
